Measured values from the supplement of paper PMC11451515.

Test system: P12-Ichikawa
Assay: cell viability relative to DMSO control; higher = less cytotoxic
Settings: 48 h
Procedure, shortened: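 Library compounds in DMSO were pin-dosed into 1536-well plates (5 μl) holding NOMO1 or SEM (500 cells/well) or P12-Ichikawa (1000 cells/well) leukemia cells, across an 11-point threefold series of 47 μM to 0.79 nM. Each cell line had been adapted for at least four passages in each medium. CellTiter-Glo One luminescence was read after 48 h at 37°C. Viability is the per-plate percentage relative to DMSO wells, with cell-free wells as background.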

[1] = HPLM + 10% dialyzed FBS, 0.000781 µM
[2] = HPLM + 10% dialyzed FBS, 0.00234 µM
[3] = HPLM + 10% dialyzed FBS, 0.00702 µM
[4] = HPLM + 10% dialyzed FBS, 0.0211 µM
[5] = HPLM + 10% dialyzed FBS, 0.0632 µM
[6] = HPLM + 10% dialyzed FBS, 0.19 µM
[7] = HPLM + 10% dialyzed FBS, 0.569 µM
[8] = HPLM + 10% dialyzed FBS, 1.71 µM
[9] = HPLM + 10% dialyzed FBS, 5.12 µM
[10] = HPLM + 10% dialyzed FBS, 15.4 µM
[11] = HPLM + 10% dialyzed FBS, 46.1 µM
[12] = RPMI 5 mM glucose + 10% FBS, 0.000781 µM
[13] = RPMI 5 mM glucose + 10% FBS, 0.00234 µM
[14] = RPMI 5 mM glucose + 10% FBS, 0.00702 µM
[15] = RPMI 5 mM glucose + 10% FBS, 0.0211 µM
[16] = RPMI 5 mM glucose + 10% FBS, 0.0632 µM
[17] = RPMI 5 mM glucose + 10% FBS, 0.19 µM
[18] = RPMI 5 mM glucose + 10% FBS, 0.569 µM
[19] = RPMI 5 mM glucose + 10% FBS, 1.71 µM
[20] = RPMI 5 mM glucose + 10% FBS, 5.12 µM
[21] = RPMI 5 mM glucose + 10% FBS, 15.4 µM
[22] = RPMI 5 mM glucose + 10% FBS, 46.1 µM
[23] = RPMI 5 mM glucose + 10% dialyzed FBS, 0.000781 µM
[24] = RPMI 5 mM glucose + 10% dialyzed FBS, 0.00234 µM
[25] = RPMI 5 mM glucose + 10% dialyzed FBS, 0.00702 µM
[26] = RPMI 5 mM glucose + 10% dialyzed FBS, 0.0211 µM
[27] = RPMI 5 mM glucose + 10% dialyzed FBS, 0.0632 µM
[28] = RPMI 5 mM glucose + 10% dialyzed FBS, 0.19 µM
[29] = RPMI 5 mM glucose + 10% dialyzed FBS, 0.569 µM
[30] = RPMI 5 mM glucose + 10% dialyzed FBS, 1.71 µM
[31] = RPMI 5 mM glucose + 10% dialyzed FBS, 5.12 µM
[32] = RPMI 5 mM glucose + 10% dialyzed FBS, 15.4 µM
[33] = RPMI 5 mM glucose + 10% dialyzed FBS, 46.1 µM

SMILES	cell viability [1] [%]	cell viability [2] [%]	cell viability [3] [%]	cell viability [4] [%]	cell viability [5] [%]	cell viability [6] [%]	cell viability [7] [%]	cell viability [8] [%]	cell viability [9] [%]	cell viability [10] [%]	cell viability [11] [%]	cell viability [12] [%]	cell viability [13] [%]	cell viability [14] [%]	cell viability [15] [%]	cell viability [16] [%]	cell viability [17] [%]	cell viability [18] [%]	cell viability [19] [%]	cell viability [20] [%]	cell viability [21] [%]	cell viability [22] [%]	cell viability [23] [%]	cell viability [24] [%]	cell viability [25] [%]	cell viability [26] [%]	cell viability [27] [%]	cell viability [28] [%]	cell viability [29] [%]	cell viability [30] [%]	cell viability [31] [%]	cell viability [32] [%]	cell viability [33] [%]
C=CCc1cc(OC)c(O)c(C(=O)NCCO)c1	106	113	109	108	106	109	99.4	105	103	93	98.2	99.6	112	95.4	104	113	100	103	95.4	101	93.7	89.4	98.9	108	104	104	103	101	105	104	84.4	105	94.1
COc1ccc(C(=O)CC(=O)c2ccc(C(C)(C)C)cc2)cc1	105	112	113	110	120	116	119	113	118	108	97.2	101	97.6	104	106	116	111	103	109	112	106	90.7	98.1	107	111	112	110	119	117	113	120	110	91.1
O=C(Nc1ccc([N+](=O)[O-])cc1Cl)c1cc(Cl)ccc1O	95.3	105	98.6	102	107	106	105	88	46	12.9	24.7	92.2	90.9	96	92.9	104	106	102	71.6	33	17	26.3	81.5	92.7	81.4	91.9	87.2	88	94.2	69	31.4	32.1	5.22
COc1ccc2c(OCc3nnc4ccc(-c5ccccc5)nn34)ccnc2c1	101	116	106	104	104	97.5	104	95.9	103	103	28.1	115	117	123	122	114	106	112	117	106	124	122	123	118	105	111	105	105	106	103	106	109	77.7
CN1/C=C(\N=C(NC2=CC=C(C=C2)C(=O)N3CCOCC3)/C1=O)/C4=C(C)C(=CC=C4)NC(=O)C5=CC=C(C=C5)C(C)(C)C	107	108	108	101	104	103	106	98.1	98.3	88.6	89.5	102	95.4	107	91.2	106	110	97.9	100	98.5	95.4	94.4	106	111	103	101	108	106	105	106	107	93.7	85.7
FC(F)(F)C1=CC=C2C(SCCCCCO\C3=C\O\C(CN4CCOCC4)=C/C3=O)=CC=NC2=C1	107	122	123	120	129	126	132	123	123	107	88.1	110	119	109	114	113	109	125	121	111	94.4	66	112	118	113	116	130	116	127	119	115	104	78
CCOc1cc(/C=C2/C(=O)N(c3ccccc3)N=C2C)cc(Cl)c1OCC(=O)OC	85.7	90.9	87.7	93.7	84.6	89.9	91.1	98.7	88.3	84.6	83.3	79.4	89.3	77.2	85.7	81	92.8	89.1	86.6	89.8	80.9	89.6	90.1	85.7	92	88	83	88.5	85	86.9	86.9	90.7	86.5
